This note sets out measurements from US20240309014A1, “MACROCYCLIC COMPOUNDS AND USES THEREOF” (President and Fellows of Harvard College, priority 2017, published 2024).

Assay [1] has as its system human endometrial cancer cell line AN3CA xenograft. As to the kind of experiment: AN3CA endometrial cancer xenograft as monotherapy (FIG. 18). Conditions: 180 μg/kg i.v. Day 1 and Day 8. It is filed as in vivo, nude mice. How it is done: A human endometrial cancer cell line AN3CA, which had been cultured in an E-MEM containing 10% FBS, and penicillin-streptomycin, was adjusted to a concentration of 1.4×10^8 cells/mL with Hanks' Balanced Salt Solution to prepare a cell suspension, and the suspension was mixed with Geltrex® (Thermo Fisher Scientific Inc., #A1413202) in a ratio of 1:1 to prepare a cell suspension in a concentration of 7×10^7 cells/mL. The cell suspension was inoculated in a volume of 100 μL into a subcutaneous part of a right flank of nude mice, 6 weeks of ages (CAnN.Cg-Foxnlnu/CrlCrlj, female, Charles River Laboratories Japan Inc.). Twelve days after cell inoculation (Day 1), the shortest diameter and the longest diameter of a tumor in each mouse were measured by using an electronic digital caliper (Digimatic™ caliper, Mitutoyo Corporation), so as to calculate the volume of the tumor in accordance with the following calculation formulae: […]
On the basis of the volumes of tumors obtained on Day 1, the mice were grouped such that averages of the tumor volumes were substantially equal among the groups. The experiment was conducted on groups each consisting of five mice. The test compound was dissolved in DMSO and a solution was stored in the freezer before use. Immediately before the administration, the stock solution was diluted with saline. […]

Assay [2] concerns human bladder carcinoma cell line RT112/84. As to the kind of experiment: Bladder carcinoma cell line growth inhibition assay, RT112/84. It is filed as cell-based. Conditions: RT112/84, 72 h, 3 days incubation, CellTiter-Glo 2.0. How it is done:
In this assay, the growth inhibitory activity of Compound (1) in human bladder carcinoma cell lines RT4, RT112/84, and UM-UC-3 was measured. RT4 and RT112/84 cells were maintained in a RPMI-1640 (FUJIFILM Wako Pure Chemical Corporation, 189-02025) medium containing 10% fetal bovine serum (FBS: SIGMA Life Science, 172012-500ML), and penicillin and streptomycin (FUJIFILM Wako Pure Chemical Corporation, 168-23191) in a 5% CO2 incubator (37° C.). UM-UC-3 cells were maintained in an E-MEM (FUJIFILM Wako Pure Chemical Corporation, 051-07615) medium containing 10% FBS, 1 mM Sodium Pyruvate (FUJIFILM Wako Pure Chemical Corporation, 190-14881), and penicillin and streptomycin in a 5% CO2 incubator (37° C.). To each well of a 96 well plate (Coming, 3904), 90 μL of each cell suspension adjusted to a concentration of 5.55×10^3 cells/mL (RT4 or UM-UC-3) or 3.33×10^4 cells/mL (RT112/84) with the culture medium was added, and the cells were incubated overnight in a 5% CO2 incubator (37° C.). On the next day, 10 μL of Compound (1) in three-fold dilution series suspended in the culture medium was added to each well, and the resultant was incubated for 3 days in a 5% CO2incubator (37° C.). Then, cell viability was determined by CellTiter-Glo® 2.0 Assay (Promega Corporation, G9243) with ARVO-X4 Multimode Plate Reader (Perkin-Elmer, Wellesley, MA). […]

Assay [3] has as its system tubulin protein purified from porcine brain. The assay is described as follows: Cell-free tubulin polymerization assay. It is filed as biochemical. Conditions: final concentrations 0.625-10 μmol/L. Here is the method:
Tubulin Polymerization Assay kit was purchased from Cytoskeleton, Inc. (Cat.#BKO11P). The kit contained 1 bottle of lyophilized tubulin protein purified from porcine brain, 3 tubes of lyophilized GTP, 2 bottles of lyophilized assay buffer, and 1 bottle of tubulin glycerol buffer. Assay buffer was prepared by dissolving the contents in 10 mL of deionized and sterilized water. This solution contained 80 mmol/L piperazine-N,N′-bis[2-ethanesulfonic acid] sesquisodium salt, 2.0 mmol/L magnesium chloride, 0.5 mmol/L ethylene glycol-bis(2-amino-ethyl ether) N,N,N′,N-tetra-acetic acid, pH 6.9, and 10 μmol/L fluorescent reporter.
The buffer was stored at −70° C. until use. […]
In the tubulin polymerization assay, reaction mixture was prepared by mixing 820 µL of assay buffer, 17.6 μL of GTP stock solution, and 600 μL of tubulin glycerol buffer. […] Fluorescence emission at 460 nm (excitation wavelength at 360 nm) was measured every 2 minutes for 90 minutes using the SpectraMax® M5e microplate reader (Molecular Devices). Tubulin polymerization was followed by fluorescence enhancement due to the incorporation of a fluorescence reporter into microtubules as polymerization occurred. […]

Usually IC50 stands for the concentration needed to halve the response being measured. A lower IC50 goes with greater potency in that assay.

With `C=C1C[C@@H]2CC[C@@]34C[C@H]5O[C@H]6[C@@H](O3)[C@H]3O[C@H](CC[C@@H]3O[C@H]6C5O4)CC(=O)O[C@@H]3[C@@H](C)[C@@H]4O[C@@H]5C[C@]6(C[C@@H]7O[C@]8(C[C@H](C)[C@@H]9O[C@H](CN)[C@H](O)C[C@@H]9O8)C[C@H](C)[C@@H]7O6)O[C@@H]5C[C@@H]4O[C@H]3C[C@H]3O[C@@H](CC[C@@H]1O2)C[C@@H](C)C3=C` (stereo in doubt) [Compound (1)], the antitumor activity entry in assay [1] is “tumor regression”. This compound yielded an IC50 in assay [2] of 0.0497 nM. For the same compound, the “effect on tubulin polymerization” value in assay [3] is on record as “inhibited tubulin polymerization in a concentration-dependent manner”.
